Results: PubChem BioAssay (NCI)
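Cultured in 96-well plates, cells were exposed to test compound for 48 hours across five concentrations. GI50: concentration for 50% inhibition of growth. TGI: concentration producing complete growth inhibition.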

Assays:
Assay in all cases: DTP human tumour cell line panel, 48 h
ACHN renal = tested on: ACHN renal
HCT-15 colon = tested on: HCT-15 colon
MOLT-4 leukemia = tested on: MOLT-4 leukemia
NCI-H522 lung = tested on: NCI-H522 lung
RPMI-8226 leukemia = tested on: RPMI-8226 leukemia
SF-268 CNS = tested on: SF-268 CNS
SF-539 CNS = tested on: SF-539 CNS
SK-OV-3 ovarian = tested on: SK-OV-3 ovarian
SN12C renal = tested on: SN12C renal
SNB-19 CNS = tested on: SNB-19 CNS

SMILES | TGI (ACHN renal) | TGI (HCT-15 colon) | TGI (MOLT-4 leukemia) | TGI (NCI-H522 lung) | TGI (RPMI-8226 leukemia) | TGI (SF-268 CNS) | TGI (SF-539 CNS) | TGI (SK-OV-3 ovarian) | TGI (SN12C renal) | TGI (SNB-19 CNS) | GI50 (ACHN renal) | GI50 (HCT-15 colon) | GI50 (MOLT-4 leukemia) | GI50 (NCI-H522 lung) | GI50 (RPMI-8226 leukemia) | GI50 (SF-268 CNS) | GI50 (SF-539 CNS) | GI50 (SK-OV-3 ovarian) | GI50 (SN12C renal) | GI50 (SNB-19 CNS)
C=C1C(=O)OC2C1C(OC(=O)/C(C)=C/C)CC(O)(CCl)C1C(O)C3OC3(C)C21O (stereo not given) | > 50 µM | > 50 µM | > 50 µM | 10.2 µM | > 50 µM | > 50 µM | > 50 µM | > 50 µM | > 50 µM | > 50 µM | – | – | – | – | – | – | – | – | – | –
CS[C@]12C(=O)C[C@@]3(C)[C@@H](CC[C@]3(O)C(=O)CO)[C@@H]1CCC1=CC(=O)CC[C@@]12C | > 100 µM | > 100 µM | > 100 µM | > 100 µM | > 100 µM | > 100 µM | > 100 µM | > 100 µM | > 100 µM | > 100 µM | – | – | – | – | – | – | – | – | – | –
CCN(CC)Cc1ccc(Nc2nccc(-c3cnn4ncccc34)n2)cc1 | > 25 µM | > 25 µM | 0.144 µM | 0.116 µM | 1.76 µM | 0.607 µM | 0.0781 µM | > 25 µM | > 25 µM | > 25 µM | 0.00739 µM | 0.0265 µM | 0.0388 µM | 0.049 µM | 0.0749 µM | 0.0145 µM | 0.00973 µM | 0.0825 µM | 0.0141 µM | 0.0296 µM
O=c1c2ccccc2nc(-c2ccccc2)n1NC1OC(CO)C(O)C(O)C1O (stereo not given) | > 100 µM | > 100 µM | > 100 µM | > 100 µM | > 100 µM | > 100 µM | > 100 µM | > 100 µM | > 100 µM | > 100 µM | – | – | – | – | – | – | – | – | – | –
Clc1nc(Cl)c2ncn(C/C=C/COc3cccc(OC/C=C/Cn4cnc5c(Cl)nc(Cl)nc54)c3)c2n1 | > 100 µM | > 100 µM | > 100 µM | > 100 µM | > 100 µM | > 100 µM | > 100 µM | > 100 µM | > 100 µM | > 100 µM | > 100 µM | 57.7 µM | 26.5 µM | > 100 µM | 25.3 µM | > 100 µM | > 100 µM | > 100 µM | > 100 µM | > 100 µM
C=C1C(=O)OC2/C=C(/C)C(OC(C)=O)CC(O)/C(C)=C\C(OC(=O)/C(C)=C\C)C12 (stereo not given) | > 100 µM | > 100 µM | > 100 µM | 22.7 µM | > 100 µM | > 100 µM | > 100 µM | > 100 µM | > 100 µM | > 100 µM | – | – | – | – | – | – | – | – | – | –
Cn1cc(C2=C(c3cccc(OCC(O)CO)c3)C(=O)NC2=O)c2ccccc21 (stereo not given) | > 25 µM | > 25 µM | > 25 µM | > 25 µM | > 25 µM | > 25 µM | > 25 µM | > 25 µM | > 25 µM | > 25 µM | > 25 µM | > 25 µM | > 25 µM | > 25 µM | > 25 µM | > 25 µM | > 25 µM | > 25 µM | > 25 µM | > 25 µM
CCOC(=O)NC(=O)c1cn(CCCCCCOC(=O)NCCCCCCNC(=O)OCCCCCCn2cc(C(=O)NC(=O)OCC)c(=O)[nH]c2=O)c(=O)[nH]c1=O | > 100 µM | > 100 µM | > 100 µM | > 100 µM | > 100 µM | > 100 µM | > 100 µM | > 100 µM | > 100 µM | > 100 µM | – | – | – | – | – | – | – | – | – | –
O=CN/C=C/c1ccc(O)c(O)c1 | > 100 µM | > 100 µM | > 100 µM | > 100 µM | > 100 µM | > 100 µM | > 100 µM | > 100 µM | > 100 µM | > 100 µM | – | – | – | – | – | – | – | – | – | –
CCOC(=O)NC(=O)c1cn(CCN2CCN(c3ncnc4nc[nH]c34)CC2)c(=O)[nH]c1=O | > 100 µM | > 100 µM | > 100 µM | > 100 µM | > 100 µM | > 100 µM | > 100 µM | > 100 µM | > 100 µM | > 100 µM | – | – | – | – | – | – | – | – | – | –
Cc1ccc(N2C(=O)C3C=CC(n4[nH]c(=O)n(Cc5ccccc5)c4=O)CC3C2=O)cc1 (stereo not given) | > 100 µM | > 100 µM | > 100 µM | > 100 µM | > 100 µM | > 100 µM | > 100 µM | > 100 µM | > 100 µM | > 100 µM | – | – | – | – | – | – | – | – | – | –
C1CN(SSN2CCOCC2)CCO1 | > 100 µM | > 100 µM | > 100 µM | 64.8 µM | > 100 µM | > 100 µM | 80.7 µM | > 100 µM | 77.8 µM | > 100 µM | 81 µM | 35.6 µM | 47.3 µM | 22.2 µM | 27.4 µM | 47.6 µM | 24.3 µM | > 100 µM | 26.6 µM | > 100 µM
O=C1c2ccccc2-c2c1c1ccccc1c(=O)n2CCN1CCOCC1 | 92 µM | > 100 µM | 38.6 µM | > 100 µM | > 100 µM | > 100 µM | > 100 µM | > 100 µM | > 100 µM | > 100 µM | 29.8 µM | 78.5 µM | 14.7 µM | 39.5 µM | 39 µM | > 100 µM | 84.9 µM | > 100 µM | 94.1 µM | > 100 µM
